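Protocol summary: plate cells (96-well), add compound at 5 concentrations, incubate 48 h, interpolate endpoints linearly. At the GI50, growth is halved.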 The source made the active and inactive calls. No stated cut-off is given here; in the data, active = GI50 up to about 1.1 µM and inactive = higher.
Experiments:
Test in all cases: growth of human tumour cells (NCI), 48 h
SNB-75 = tested on: SNB-75
LOX IMVI = tested on: LOX IMVI
MCF7 = tested on: MCF7
NCI-H226 = tested on: NCI-H226
CCRF-CEM = tested on: CCRF-CEM
A549 = tested on: A549
EKVX = tested on: EKVX
UACC-257 = tested on: UACC-257
HCT-116 = tested on: HCT-116
Hs-578T = tested on: Hs-578T
SK-MEL-5 = tested on: SK-MEL-5
RPMI-8226 = tested on: RPMI-8226
MOLT-4 = tested on: MOLT-4
BT-549 = tested on: BT-549
SF-295 = tested on: SF-295
SR = tested on: SR
PC-3 = tested on: PC-3
RXF 393 = tested on: RXF 393
COLO 205 = tested on: COLO 205
DU-145 = tested on: DU-145
SW-620 = tested on: SW-620
OVCAR-4 = tested on: OVCAR-4
KM12 = tested on: KM12
ACHN = tested on: ACHN
HOP-62 = tested on: HOP-62
SK-MEL-28 = tested on: SK-MEL-28
SF-268 = tested on: SF-268
M14 = tested on: M14
UO-31 = tested on: UO-31
SK-OV-3 = tested on: SK-OV-3
U-251 = tested on: U-251
A498 = tested on: A498
K562 = tested on: K562
NCI-H460 = tested on: NCI-H460
OVCAR-5 = tested on: OVCAR-5
UACC-62 = tested on: UACC-62
OVCAR-8 = tested on: OVCAR-8
MDA-MB-435 = tested on: MDA-MB-435
HT-29 = tested on: HT-29
SK-MEL-2 = tested on: SK-MEL-2
MDA-MB-231 = tested on: MDA-MB-231
HCT-15 = tested on: HCT-15
786-0 = tested on: 786-0
Malme-3M = tested on: Malme-3M
MDA-N = tested on: MDA-N
SN12C = tested on: SN12C
T47D = tested on: T47D
IGROV-1 = tested on: IGROV-1
HL-60 = tested on: HL-60
HCC 2998 = tested on: HCC 2998
NCI/ADR-RES = tested on: NCI/ADR-RES
NCI-H522 = tested on: NCI-H522
NCI-H23 = tested on: NCI-H23
SF-539 = tested on: SF-539
HOP-92 = tested on: HOP-92
SNB-19 = tested on: SNB-19
OVCAR-3 = tested on: OVCAR-3
CAKI-1 = tested on: CAKI-1

CC1(CCc2ccccc2)CC1(Br)Br (stereo not drawn)
GI50 (SNB-75): 50.6 µM (inactive) | GI50 (LOX IMVI): 20.5 µM (inactive) | GI50 (MCF7): 38.8 µM (inactive) | GI50 (NCI-H226): 24 µM (inactive) | GI50 (CCRF-CEM): 23.6 µM (inactive) | GI50 (A549): 32.9 µM (inactive) | GI50 (EKVX): 19.1 µM (inactive) | GI50 (UACC-257): 25.8 µM (inactive) | GI50 (HCT-116): 30.3 µM (inactive) | GI50 (Hs-578T): 42.9 µM (inactive) | GI50 (SK-MEL-5): 13.1 µM (inactive) | GI50 (RPMI-8226): 18.6 µM (inactive) | GI50 (MOLT-4): 23.4 µM (inactive) | GI50 (BT-549): > 100 µM (inactive) | GI50 (SF-295): 25.4 µM (inactive) | GI50 (SR): 19.8 µM (inactive) | GI50 (PC-3): 40.8 µM (inactive) | GI50 (RXF 393): 20.7 µM (inactive) | GI50 (COLO 205): 20.8 µM (inactive) | GI50 (DU-145): 57.9 µM (inactive) | GI50 (SW-620): > 100 µM (inactive) | GI50 (OVCAR-4): 30.3 µM (inactive) | GI50 (KM12): 35.7 µM (inactive) | GI50 (ACHN): 26.3 µM (inactive) | GI50 (HOP-62): 51.9 µM (inactive) | GI50 (SK-MEL-28): > 100 µM (inactive) | GI50 (SF-268): 41.4 µM (inactive) | GI50 (M14): 44.8 µM (inactive) | GI50 (UO-31): 39.4 µM (inactive) | GI50 (SK-OV-3): > 100 µM (inactive) | GI50 (U-251): 31.4 µM (inactive) | GI50 (A498): 39.6 µM (inactive) | GI50 (K562): 19.5 µM (inactive) | GI50 (NCI-H460): 34.1 µM (inactive) | GI50 (OVCAR-5): 32.6 µM (inactive) | GI50 (UACC-62): 52 µM (inactive) | GI50 (OVCAR-8): 23.6 µM (inactive) | GI50 (MDA-MB-435): 25.5 µM (inactive) | GI50 (HT-29): 30.4 µM (inactive) | GI50 (SK-MEL-2): 17.8 µM (inactive) | GI50 (MDA-MB-231): 73.1 µM (inactive) | GI50 (HCT-15): 54.8 µM | GI50 (786-0): 21 µM (inactive) | GI50 (Malme-3M): 22.5 µM (inactive) | GI50 (MDA-N): 32.7 µM (inactive) | GI50 (SN12C): 18 µM (inactive) | GI50 (T47D): 27.2 µM (inactive) | GI50 (IGROV-1): 92 µM (inactive) | GI50 (HL-60): 21.5 µM (inactive) | GI50 (HCC 2998): 40.9 µM (inactive) | GI50 (NCI/ADR-RES): 88.9 µM (inactive) | GI50 (NCI-H522): 23 µM (inactive) | GI50 (NCI-H23): 43.9 µM (inactive) | GI50 (SF-539): > 100 µM (inactive) | GI50 (HOP-92): 13 µM (inactive) | GI50 (SNB-19): > 100 µM (inactive) | GI50 (OVCAR-3): 18 µM (inactive) | GI50 (CAKI-1): 56.5 µM (inactive)

— ChEMBL document CHEMBL1201862, “PubChem BioAssay data set” (2004)
